Test results: publication PMC5118987 (Antimicrobial Agents and Chemotherapy, 2016)
Where two headings read alike, the source gives them in different places.

Columns and labels:
[1] = test system: inhibitor-selected HIV-1 IIIb passages; experiment: Phenotypic profile of selected HIV-1 passages; assay type: cell-based; details: for EC50: Human immunodeficiency virus 1, IIIB
HIV-1 BaL = details: primary CD4+ T-cells, 35 days, drug at tissue culture equivalent clinical Cmin (FTC 160 × EC50)
[2] = test system: INSTI-resistant HIV-1 mutants (HXB2); experiment: microbe, parasite or virus in culture; assay type: cell-based

For `Cc1nnc(C(=O)NC(C)(C)c2nc(C(=O)NCc3ccc(F)cc3)c(O)c(=O)n2C)o1` [RAL, raltegravir], the “Fold-Resistance Relative to HIV-1 IIIb” value ([1]; HIV-1-IIIb (reference)) was 1 fold, the EC50 ([1]; 480 h, selected virus EVG P2 (day 20, 7.2 nM)) was 25.9 nM and the EC50 ([1]; HIV-1-IIIb (unselected)) was 8.8 nM. It also gave an EC50 ([1]; selected virus BIC P3 (day 47, 6 nM)) of 18.1 nM, an EC50 ([1]; selected virus BIC P5 (day 71, 12 nM)) of 18.3 nM and an EC50 ([1]; selected virus BIC P6 (day 86, 24 nM)) of 24.4 nM. The EC50 ([1]; selected virus BIC P8 (day 156, 96 nM)) was 28.8 nM, the EC50 ([1]; selected virus BIC P9 (day 181, 192 nM)) was 41.7 nM and the EC50 ([1]; selected virus BIC P10 (day 234, 384 nM)) was 29.3 nM. It also gave an EC50 ([1]; selected virus DTG P3Lo (day 59, 6.4 nM)) of 11.8 nM, an EC50 ([1]; selected virus DTG P4 (day 87, 9.6 nM)) of 23.2 nM and an EC50 ([1]; selected virus DTG P5 (day 97, 14.4 nM)) of 28 nM. The EC50 ([1]; selected virus DTG P7 (day 139, 32.4 nM)) was 39.7 nM, the EC50 ([1]; selected virus DTG P9 (day 174, 72.9 nM)) was 43 nM and the EC50 ([1]; selected virus DTG P10 (day 202, 109.4 nM)) was 56.9 nM. It also gave an EC50 ([1]; selected virus EVG P4 (day 41, 28.8 nM)) of 26.9 nM, an EC50 ([1]; selected virus EVG P6 (day 56, 115 nM)) of 19.9 nM and an EC50 ([1]; selected virus EVG P7 (day 67, 230 nM)) of 28.7 nM. The EC50 ([1]; selected virus EVG P9 (day 94, 922 nM)) was 44.9 nM, the EC50 ([1]; selected virus EVG P10 (day 119, 1843 nM)) was 17 nM and the “Fold-Resistance Relative to HIV-1 IIIb” value ([1]; selected virus BIC P3) was 2 fold. For the same compound, the “Fold-Resistance Relative to HIV-1 IIIb” value ([1]; selected virus BIC P5) was 2.1 fold, the “Fold-Resistance Relative to HIV-1 IIIb” value ([1]; selected virus BIC P6) was 2.8 fold and the “Fold-Resistance Relative to HIV-1 IIIb” value ([1]; selected virus BIC P8) was 3.3 fold. The “Fold-Resistance Relative to HIV-1 IIIb” value ([1]; selected virus BIC P9) was 4.7 fold, the “Fold-Resistance Relative to HIV-1 IIIb” value ([1]; selected virus BIC P10) was 3.3 fold and the “Fold-Resistance Relative to HIV-1 IIIb” value ([1]; selected virus DTG P3Lo) was 1.3 fold. For the same compound, the “Fold-Resistance Relative to HIV-1 IIIb” value ([1]; selected virus DTG P4) was 2.6 fold, the “Fold-Resistance Relative to HIV-1 IIIb” value ([1]; selected virus DTG P5) was 3.2 fold and the “Fold-Resistance Relative to HIV-1 IIIb” value ([1]; selected virus DTG P7) was 4.5 fold. The “Fold-Resistance Relative to HIV-1 IIIb” value ([1]; selected virus DTG P9) was 4.9 fold, the “Fold-Resistance Relative to HIV-1 IIIb” value ([1]; selected virus DTG P10) was 6.4 fold and the “Fold-Resistance Relative to HIV-1 IIIb” value ([1]; selected virus EVG P2) was 2.9 fold. The “Fold-Resistance Relative to HIV-1 IIIb” value ([1]; selected virus EVG P4) was 3.0 fold, the “Fold-Resistance Relative to HIV-1 IIIb” value ([1]; selected virus EVG P6) was 2.3 fold and the “Fold-Resistance Relative to HIV-1 IIIb” value ([1]; selected virus EVG P7) was 3.3 fold. The “Fold-Resistance Relative to HIV-1 IIIb” value ([1]; selected virus EVG P9) was 5.1 fold, the “Fold-Resistance Relative to HIV-1 IIIb” value ([1]; selected virus EVG P10) was 1.9 fold and the “Frequency of Viral Breakthrough with RAMs” value (HIV-1 BaL) was 58%. The “p24+ Wells” value (HIV-1 BaL) was 12/12, the EC50 ([2]; Human immunodeficiency virus 1, HXB2, IN mutant E92Q) was 38 ± 9 nM and the EC50 ([2]; Human immunodeficiency virus 1, HXB2, IN mutant E92Q/N155H) was 624 ± 213 nM. For the same compound, the EC50 ([2]; Human immunodeficiency virus 1, HXB2, IN mutant E138K/Q148K) was 1530 nM, the EC50 ([2]; Human immunodeficiency virus 1, HXB2, IN mutant G140S/Q148R) was 2460 nM and the EC50 ([2]; Human immunodeficiency virus 1, HXB2, IN mutant M50I (BIC/DTG selection)) was 7.4 ± 1.7 nM. The EC50 ([2]; Human immunodeficiency virus 1, HXB2, IN mutant M50I/R263K (BIC selection)) was 7.7 ± 2.1 nM, the EC50 ([2]; Human immunodeficiency virus 1, HXB2, IN mutant M50I/S119R/R263K (DTG selection)) was 19 ± 7 nM and the EC50 ([2]; Human immunodeficiency virus 1, HXB2, IN mutant N155H) was 188 ± 37 nM. It also gave an EC50 ([2]; Human immunodeficiency virus 1, HXB2, IN mutant N155H/Q148R) of 2180 nM, an EC50 ([2]; Human immunodeficiency virus 1, HXB2, IN mutant Q148R) of 427 ± 52 nM and an EC50 ([2]; Human immunodeficiency virus 1, HXB2, IN mutant R263K (BIC/DTG selection), Table 7) of 7.7 ± 1.2 nM. It also gave an EC50 ([2]; Human immunodeficiency virus 1, HXB2, IN mutant R263K, Table 6) of 10.4 ± 1.4 nM, an EC50 ([2]; Human immunodeficiency virus 1, HXB2, IN mutant S119R (DTG selection)) of 15 ± 5 nM and an EC50 ([2]; Human immunodeficiency virus 1, HXB2, IN mutant S119R/R263K (DTG selection)) of 12 ± 2 nM. It also gave an EC50 ([2]; Human immunodeficiency virus 1, HXB2, IN mutant S153Y (DTG selection)) of 15 ± 4 nM, an EC50 ([2]; Human immunodeficiency virus 1, HXB2, IN mutant S153Y/R263K (DTG selection)) of 22 ± 2 nM and an EC50 ([2]; Human immunodeficiency virus 1, HXB2, IN mutant Y143R) of 418 ± 151 nM. For the same compound, the EC50 ([2]; Human immunodeficiency virus 1, HXB2, WT (HXB2), Table 6, read-out: EC50) was 9.4 ± 1.4 nM, the EC50 ([2]; Human immunodeficiency virus 1, HXB2, WT (HXB2), Table 7, read-out: EC50) was 7.1 ± 1.1 nM and the “cross-resistance of BIC-selected variants” value ([2]; all BIC-selected variants) was < 8 fold.
